Measured values from article PMC4549746, “Zearalenone in the Intestinal Tissues of Immature Gilts Exposed per os to Mycotoxins” (Toxins, 2015).
“And” between values parts separate entries of the source, which are not always exact repeats. Equal entries are not always repeated. Where two headings read alike, the source gives them in different places.

Assay: ZEN concentrations and carryover factor in intestinal tissues and liver of pre-pubertal gilts exposed per os (HPLC)
Assay type: in vivo
Conditions: 40 μg/kg BW daily per os; for concentration at 4 weeks / concentration at 5 weeks / concentration at 1 week / concentration at 2 weeks / concentration at 3 weeks / concentration at 6 weeks: female, pig, oral
Procedure: The animals were divided into an experimental group (E, n = 18) and a control group (C, n = 21). Group E animals were orally administered ZEN at 40 μg/kg BW. Group C pigs were fed a placebo. The animals were fed complete diets in a restricted feeding regimen (Table 1). The daily dose of ZEN (40 µg/kg BW) was administered to each animal individually, which corresponds to exposure to 957–1014 µg ZEN/kg of a complete diet, depending on daily feed intake. Zearalenone was biosynthesized, purified and standardized by the Department of Chemistry of the Poznań University of Life Sciences. The experiment covered a period of 42 days. The mycotoxin was administered per os daily, in gelatine capsules before the morning feeding. The ZEN dose was adjusted to the body weight of the experimental animals. The mycotoxin was administered in capsules to prevent problems associated with uneven feed intake. Mycotoxin samples were diluted in 300 μL of 96% ethyl alcohol (96% ethyl alcohol, SWW 2442-90, Polskie Odczynniki Chemiczne SA, Gliwice, Poland) to the required dose level (based on body weight). Final solutions were stored at room temperature for 12 h to evaporate the solvent. The animals were weighed every 7 days to update mycotoxin doses for each gilt. Three animals from the experimental group and the control group each were sacrificed on Days 1, 7, 14, 21, 28, 35 and 42 (a total of 6 gilts in each week of exposure), excluding day 1, when only 3 control group animals were scarified. Every week, tissue samples were collected from the porcine gastrointestinal tract (duodenum, first and middle sections, jejunum, ileum, cecum, ascending colon, transverse colon, descending colon, middle section, and the liver, left lobe). Tissue samples were collected from the whole intestinal cross-sections.
Post-mortem tissue samples were collected from the duodenum, jejunum, ileum, cecum, ascending colon, transverse colon, descending colon and the liver after rinsing with phosphate buffer. Pure tissues were stored at −80 °C until shredding and extraction.
Tissue samples (2 g) were homogenized with 9 cm^3 of methanol for 4 min; they were transferred to centrifuge tubes with a minimal amount of the sediment, and the remainder was combined with 5 cm^3 of methanol and repeatedly homogenized. The extracts were combined and centrifuged for 10 min. The supernatant was transferred to a graduated test tube; its volume was read from the scale, and it was evaporated under a stream of nitrogen at a temperature of 60 °C to 0.1–0.2 cm^3 of water. The evaporated product was combined with 2 cm^3 of deionized water, 2 cm^3 of 0.2 M sodium acetate and 500 µL of […] solution. After 16 h of incubation at 37 °C, the reaction was stopped by adding 0.5 cm^3 of acetonitrile. The mixture was quantitatively transferred to a centrifuge tube; it was combined with 10 cm^3 of deionized water and centrifuged for 10 min at 3500 rpm. The supernatant was applied to the Zearala-Test™ column at the rate of 1–2 drops per second. Mycotoxins were eluted from the column with 1.5 mL of methanol; the solvent was evaporated, and the residue was reconstituted with 1 mL of methanol for HPLC analysis.
The concentrations of ZEN and its derivatives were determined by HPLC with the use of the Waters 2695 Separations Module, Waters 2475 Multi λ Fluorescence Detector and Waters 2996 Array Detector. Excitation and emission wavelengths were 274 and 440 nm, respectively. The reverse-phase column was C-18 Nova Pak (3.9 × 150 mm), and the mobile phase was acetonitrile-water-methanol (46:46:8, v/v/v) at a flow rate of 0.5 mL·min^−1. The mycotoxins were quantified by measuring the […] of the peaks based on the relevant calibration curves (correlation coefficient of 0.9996 for ZEN, 0.9989 for α-ZEL and 0.9976 for β-ZEL). Detection limits were determined at 0.001 µg·g^−1 for ZEN, 0.003 µg·g^−1 for α-ZEL and 0.002 µg·g^−1 for β-ZEL. […]

[1] = Week I of exposure, total ZEN dose 280 µg/kg BW
[2] = Week II of exposure, total ZEN dose 560 µg/kg BW
[3] = Week III of exposure, total ZEN dose 840 µg/kg BW
[4] = Week IV of exposure, total ZEN dose 1120 µg/kg BW
[5] = Week V of exposure, total ZEN dose 1400 µg/kg BW
[6] = Week VI of exposure, total ZEN dose 1680 µg/kg BW

C[C@H]1CCCC(=O)CCC/C=C/c2cc(O)cc(O)c2C(=O)O1 [ZEN, zearalenone]
Carryover Factor (CF), Ascending Colon [1]: 0.0054 | Carryover Factor (CF), Cecum [1]: 0.0162 | Carryover Factor (CF), Descending Colon [1]: 0.0167 | Carryover Factor (CF), Duodenum [1]: 0.031 | Carryover Factor (CF), Ileum [1]: 0.016 | Carryover Factor (CF), Jejunum [1]: 0.035 | Carryover Factor (CF), Liver [1]: 0.0225 | Carryover Factor (CF), Transverse Colon [1]: 0.0049 | Carryover Factor (CF), Ascending Colon [2]: 0.0028 | Carryover Factor (CF), Cecum [2]: 0.0075 | Carryover Factor (CF), Descending Colon [2]: 0.0121 | Carryover Factor (CF), Duodenum [2]: 0.022 | Carryover Factor (CF), Ileum [2]: 0.009 | Carryover Factor (CF), Jejunum [2]: 0.035 | Carryover Factor (CF), Liver [2]: 0.0139 | Carryover Factor (CF), Transverse Colon [2]: 0.0082 | Carryover Factor (CF), Ascending Colon [3]: 0.0037 | Carryover Factor (CF), Descending Colon [3]: 0.0090 | Carryover Factor (CF), Duodenum [3]: 0.014 | Carryover Factor (CF), Ileum [3]: 0.008 | Carryover Factor (CF), Jejunum [3]: 0.016 | Carryover Factor (CF), Liver [3]: 0.0154 | Carryover Factor (CF), Transverse Colon [3]: 0.0046 | Carryover Factor (CF), Ascending Colon [4]: 0.0042 | Carryover Factor (CF), Cecum [4]: 0.0030 | Carryover Factor (CF), Descending Colon [4]: 0.1830 | Carryover Factor (CF), Duodenum [4]: 0.019 | Carryover Factor (CF), Ileum [4]: 0.004 | Carryover Factor (CF), Jejunum [4]: 0.039 | Carryover Factor (CF), Liver [4]: 0.0162 | Carryover Factor (CF), Transverse Colon [4]: 0.0065 | ZEN Concentrations (x¯ and SD), Ascending Colon [4]: 4.69 ± 0.45 ng/g | ZEN Concentrations (x¯ and SD), Descending Colon [4]: 205.01 ± 94.70 ng/g | ZEN Concentrations (x¯ and SD), Jejunum [4]: 43.82 ± 7.63 ng/g | ZEN Concentrations (x¯ and SD), Transverse Colon [4]: 7.37 ± 1.66 ng/g | Carryover Factor (CF), Ascending Colon [5]: 0.0024 | Carryover Factor (CF), Cecum [5]: 0.0129 | Carryover Factor (CF), Descending Colon [5]: 0.1264 | Carryover Factor (CF), Duodenum [5]: 0.091 | Carryover Factor (CF), Ileum [5]: 0.002 | Carryover Factor (CF), Jejunum [5]: 0.010 | Carryover Factor (CF), Liver [5]: 0.0142 | Carryover Factor (CF), Transverse Colon [5]: 0.0046 | ZEN Concentrations (x¯ and SD), Cecum [5]: 18.17 ± 5.02 ng/g | ZEN Concentrations (x¯ and SD), Duodenum [5]: 128 ng/g and 128.18 ± 64.54 ng/g | Carryover Factor (CF), Ascending Colon [6]: 0.0014 | Carryover Factor (CF), Cecum [6]: 0.0081 | Carryover Factor (CF), Descending Colon [6]: 0.0666 | Carryover Factor (CF), Duodenum [6]: 0.048 | Carryover Factor (CF), Ileum [6]: 0.016 | Carryover Factor (CF), Jejunum [6]: 0.005 | Carryover Factor (CF), Liver [6]: 0.0136 | Carryover Factor (CF), Transverse Colon [6]: 0.0039 | ZEN Concentrations (x¯ and SD), Ileum [6]: 27.52 ± 10.28 ng/g | ZEN Concentrations (x¯ and SD), Liver [6]: 23.00 ± 0.79 ng/g | CF, Average values, Ascending Colon (average of Weeks I-VI): 0.0033 | CF, Average values, Cecum (average of Weeks I-VI): 0.0089 | CF, Average values, Descending Colon (average of Weeks I-VI): 0.0688 | CF, Average values, Duodenum (average of Weeks I-VI): 0.0375 | CF, Average values, Ileum (average of Weeks I-VI): 0.0091 | CF, Average values, Jejunum (average of Weeks I-VI): 0.0233 | CF, Average values, Liver (average of Weeks I-VI): 0.0159 | CF, Average values, Transverse Colon (average of Weeks I-VI): 0.0054 | ZEN concentration, Average values, Ascending Colon (average of Weeks I-VI): 2.805 ng/g | ZEN concentration, Average values, Descending Colon (average of Weeks I-VI): 85.525 ng/g | ZEN concentration, Average values, Duodenum (average of Weeks I-VI): 43.93 ng/g | ZEN concentration, Average values, Ileum (average of Weeks I-VI): 8.705 ng/g | ZEN concentration, Average values, Jejunum (average of Weeks I-VI): 18.208 ng/g | ZEN concentration, Average values, Liver (average of Weeks I-VI): 14.72 ng/g | average ileal concentrations of ZEN (between Week I and Week V): 4.9 ng/g | concentration at 4 weeks (ascending colon, 40 μg/kg BW daily, Week IV of exposure, total ZEN dose 1120 µg/kg BW, read-out: ZEN Concentrations (x¯ and SD), Ascending Colon): 4.7 ng/g | concentration at 5 weeks (ascending colon, 40 μg/kg BW daily, Week V of exposure, total ZEN dose 1400 µg/kg BW, read-out: ZEN Concentrations (x¯ and SD), Ascending Colon): 3.4 ± 0.54 ng/g | concentration at 1 week (ascending colon, 40 μg/kg BW, Week I of exposure, total ZEN dose 280 µg/kg BW, read-out: ZEN Concentrations (x¯ and SD), Ascending Colon): 1.53 ± 1.95 ng/g | concentration at 2 weeks (ascending colon, 40 μg/kg BW, Week II of exposure, total ZEN dose 560 µg/kg BW, read-out: ZEN Concentrations (x¯ and SD), Ascending Colon): 1.59 ± 2.76 ng/g | concentration at 3 weeks (ascending colon, 40 μg/kg BW, Week III of exposure, total ZEN dose 840 µg/kg BW, read-out: ZEN Concentrations (x¯ and SD), Ascending Colon): 3.16 ± 1.79 ng/g | concentration at 6 weeks (ascending colon, 40 μg/kg BW, Week VI of exposure, total ZEN dose 1680 µg/kg BW, read-out: ZEN Concentrations (x¯ and SD), Ascending Colon): 2.46 ± 1.92 ng/g | concentration at 5 weeks (cecum, 40 μg/kg BW daily, Week V of exposure, total ZEN dose 1400 µg/kg BW, read-out: ZEN Concentrations (x¯ and SD), Cecum): 18.2 ng/g | concentration at 6 weeks (cecum, 40 μg/kg BW, Week VI of exposure, total ZEN dose 1680 µg/kg BW, read-out: ZEN Concentrations (x¯ and SD), Cecum): 13.7 ± 1.17 ng/g | concentration at 4 weeks (descending colon, 40 μg/kg BW daily, Week IV of exposure, total ZEN dose 1120 µg/kg BW, read-out: ZEN Concentrations (x¯ and SD), Descending Colon): 205 ng/g | concentration at 5 weeks (descending colon, 40 μg/kg BW daily, Week V of exposure, total ZEN dose 1400 µg/kg BW, read-out: ZEN Concentrations (x¯ and SD), Descending Colon): 177 ± 50.6 ng/g | concentration at 6 weeks (descending colon, 40 μg/kg BW, Week VI of exposure, total ZEN dose 1680 µg/kg BW, read-out: ZEN Concentrations (x¯ and SD), Descending Colon): 112 ± 13.7 ng/g | concentration at 1 week (duodenum, 40 μg/kg BW daily, Week I of exposure, total ZEN dose 280 µg/kg BW, read-out: ZEN Concentrations (x¯ and SD), Duodenum): 8.6 ng/g | concentration at 5 weeks (duodenum, 40 μg/kg BW daily, Week V of exposure, total ZEN dose 1400 µg/kg BW, read-out: ZEN Concentrations (x¯ and SD), Duodenum): 128 ng/g | concentration at 6 weeks (duodenum, 40 μg/kg BW, Week VI of exposure, total ZEN dose 1680 µg/kg BW, read-out: ZEN Concentrations (x¯ and SD), Duodenum): 80.7 ± 4.34 ng/g | concentration at 6 weeks (ileum, 40 μg/kg BW daily, Week VI of exposure, total ZEN dose 1680 µg/kg BW, read-out: ZEN Concentrations (x¯ and SD), Ileum): 27.5 ng/g | concentration at 4 weeks (jejunum, 40 μg/kg BW daily, Week IV of exposure, total ZEN dose 1120 µg/kg BW, read-out: ZEN Concentrations (x¯ and SD), Jejunum): 43.8 ng/g | concentration at 6 weeks (jejunum, 40 μg/kg BW daily, Week VI of exposure, total ZEN dose 1680 µg/kg BW, read-out: ZEN Concentrations (x¯ and SD), Jejunum): 8.3 ng/g | concentration at 4 weeks (liver, 40 μg/kg BW daily, Week IV of exposure, total ZEN dose 1120 µg/kg BW, read-out: ZEN Concentrations (x¯ and SD), Liver): 18.2 ± 5.92 ng/g | concentration at 5 weeks (liver, 40 μg/kg BW daily, Week V of exposure, total ZEN dose 1400 µg/kg BW, read-out: ZEN Concentrations (x¯ and SD), Liver): 20 ± 2.43 ng/g | concentration at 6 weeks (liver, 40 μg/kg BW daily, Week VI of exposure, total ZEN dose 1680 µg/kg BW, read-out: ZEN Concentrations (x¯ and SD), Liver): 23 ng/g | concentration at 3 weeks (liver, 40 μg/kg BW, Week III of exposure, total ZEN dose 840 µg/kg BW, read-out: ZEN Concentrations (x¯ and SD), Liver): 13 ± 1.78 ng/g | concentration at 4 weeks (transverse colon, 40 μg/kg BW daily, Week IV of exposure, total ZEN dose 1120 µg/kg BW, read-out: ZEN Concentrations (x¯ and SD), Transverse Colon): 7.4 ng/g | concentration at 5 weeks (transverse colon, 40 μg/kg BW daily, Week V of exposure, total ZEN dose 1400 µg/kg BW, read-out: ZEN Concentrations (x¯ and SD), Transverse Colon): 6.49 ± 0.96 ng/g | concentration at 2 weeks (transverse colon, 40 μg/kg BW, Week II of exposure, total ZEN dose 560 µg/kg BW, read-out: ZEN Concentrations (x¯ and SD), Transverse Colon): 4.63 ± 3.86 ng/g | concentration at 3 weeks (transverse colon, 40 μg/kg BW, Week III of exposure, total ZEN dose 840 µg/kg BW, read-out: ZEN Concentrations (x¯ and SD), Transverse Colon): 3.94 ± 0.57 ng/g | concentration at 6 weeks (transverse colon, 40 μg/kg BW, Week VI of exposure, total ZEN dose 1680 µg/kg BW, read-out: ZEN Concentrations (x¯ and SD), Transverse Colon): 6.7 ± 0.25 ng/g
